Activity calls are given as the source filed them.
What was measured:
[1] = growth suppression of PTEN-null colon cells, dose response, cell-based, HCT116 PTEN knockout (AID 1047); type: functional;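 further: HCT116 colon tumor cells with PTEN knocked out; cells exposed to compound for 60 hours before readout; potency for loss of cell viability measured by luminescence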
[2] = growth suppression of beta-catenin-knockout colon cells, dose response, cell-based, HCT116, human colon tumor (AID 1045); type: functional;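 further: HCT116 colon tumor cells with beta catenin knocked out; cells exposed to compound for 60 hours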
[3] = biological target: T1, Sentrin-specific protease 7 (Homo sapiens, UniProt Q9BQF6); type: functional;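 further: Luminescence-based dose-response confirmation of ultra-high-throughput screening hits, measuring inhibition of SENP7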
T1 sequence (Q9BQF6 whole entry): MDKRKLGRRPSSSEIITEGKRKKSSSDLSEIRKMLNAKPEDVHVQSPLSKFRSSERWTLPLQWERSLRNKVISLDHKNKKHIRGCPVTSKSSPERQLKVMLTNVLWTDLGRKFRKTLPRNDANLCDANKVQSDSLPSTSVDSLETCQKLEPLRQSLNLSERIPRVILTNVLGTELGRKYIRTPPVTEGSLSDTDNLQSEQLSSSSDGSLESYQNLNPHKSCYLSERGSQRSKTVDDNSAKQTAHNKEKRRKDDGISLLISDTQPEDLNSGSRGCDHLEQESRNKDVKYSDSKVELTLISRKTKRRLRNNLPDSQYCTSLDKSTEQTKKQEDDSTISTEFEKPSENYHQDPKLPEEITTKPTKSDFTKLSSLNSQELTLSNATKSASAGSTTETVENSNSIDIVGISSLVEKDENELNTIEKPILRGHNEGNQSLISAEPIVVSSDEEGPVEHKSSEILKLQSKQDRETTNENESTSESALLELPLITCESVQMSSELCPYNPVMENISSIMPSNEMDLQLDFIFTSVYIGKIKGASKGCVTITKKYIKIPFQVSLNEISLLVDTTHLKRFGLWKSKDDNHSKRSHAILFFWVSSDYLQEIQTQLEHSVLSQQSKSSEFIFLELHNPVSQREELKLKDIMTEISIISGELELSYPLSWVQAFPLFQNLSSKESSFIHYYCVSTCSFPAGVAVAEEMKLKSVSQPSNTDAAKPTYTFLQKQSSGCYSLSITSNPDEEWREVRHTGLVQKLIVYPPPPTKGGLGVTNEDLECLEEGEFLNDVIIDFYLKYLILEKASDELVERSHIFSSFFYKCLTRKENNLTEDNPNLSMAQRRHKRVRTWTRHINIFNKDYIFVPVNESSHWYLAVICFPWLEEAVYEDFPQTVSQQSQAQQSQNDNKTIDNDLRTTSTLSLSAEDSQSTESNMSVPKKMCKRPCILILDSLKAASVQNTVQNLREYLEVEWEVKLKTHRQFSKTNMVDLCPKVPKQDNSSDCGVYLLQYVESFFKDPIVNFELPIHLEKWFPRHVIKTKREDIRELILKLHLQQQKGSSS

[4] = biological target: T2, Caspase-3 (Homo sapiens, UniProt P42574); type: functional;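 further: Dose-response selectivity test against caspase-3 for candidate inhibitors of sentrin-specific proteases (SENPs)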
T2 sequence (P42574 whole entry): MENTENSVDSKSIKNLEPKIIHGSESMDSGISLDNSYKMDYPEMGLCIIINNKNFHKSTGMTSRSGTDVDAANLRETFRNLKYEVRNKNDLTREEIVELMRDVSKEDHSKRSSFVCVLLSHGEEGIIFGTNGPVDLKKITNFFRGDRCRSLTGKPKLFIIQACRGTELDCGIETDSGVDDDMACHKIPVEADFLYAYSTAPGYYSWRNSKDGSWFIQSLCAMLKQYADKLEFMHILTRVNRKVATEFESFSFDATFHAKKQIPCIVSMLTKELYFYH

[5] = biological target: T3, Sentrin-specific protease 8 (Homo sapiens, UniProt Q96LD8); type: functional;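 further: luminescence read-out of SENP8 inhibition, dose-response confirmation following an ultra-high-throughput screen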
T3 sequence (Q96LD8 whole entry): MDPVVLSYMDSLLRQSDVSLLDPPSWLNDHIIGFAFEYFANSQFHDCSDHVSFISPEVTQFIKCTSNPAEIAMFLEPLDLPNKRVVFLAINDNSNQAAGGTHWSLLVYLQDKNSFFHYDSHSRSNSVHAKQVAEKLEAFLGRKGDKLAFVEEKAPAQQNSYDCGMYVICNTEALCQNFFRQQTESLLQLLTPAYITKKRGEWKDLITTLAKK

[6] = biological target: T4, Sentrin-specific protease 6 (Homo sapiens, UniProt Q9GZR1); type: functional;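 further: Luminescence-based dose-response confirmatory assay of SENP6 inhibition, following up an ultra-high-throughput screen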
T4 sequence (Q9GZR1 whole entry): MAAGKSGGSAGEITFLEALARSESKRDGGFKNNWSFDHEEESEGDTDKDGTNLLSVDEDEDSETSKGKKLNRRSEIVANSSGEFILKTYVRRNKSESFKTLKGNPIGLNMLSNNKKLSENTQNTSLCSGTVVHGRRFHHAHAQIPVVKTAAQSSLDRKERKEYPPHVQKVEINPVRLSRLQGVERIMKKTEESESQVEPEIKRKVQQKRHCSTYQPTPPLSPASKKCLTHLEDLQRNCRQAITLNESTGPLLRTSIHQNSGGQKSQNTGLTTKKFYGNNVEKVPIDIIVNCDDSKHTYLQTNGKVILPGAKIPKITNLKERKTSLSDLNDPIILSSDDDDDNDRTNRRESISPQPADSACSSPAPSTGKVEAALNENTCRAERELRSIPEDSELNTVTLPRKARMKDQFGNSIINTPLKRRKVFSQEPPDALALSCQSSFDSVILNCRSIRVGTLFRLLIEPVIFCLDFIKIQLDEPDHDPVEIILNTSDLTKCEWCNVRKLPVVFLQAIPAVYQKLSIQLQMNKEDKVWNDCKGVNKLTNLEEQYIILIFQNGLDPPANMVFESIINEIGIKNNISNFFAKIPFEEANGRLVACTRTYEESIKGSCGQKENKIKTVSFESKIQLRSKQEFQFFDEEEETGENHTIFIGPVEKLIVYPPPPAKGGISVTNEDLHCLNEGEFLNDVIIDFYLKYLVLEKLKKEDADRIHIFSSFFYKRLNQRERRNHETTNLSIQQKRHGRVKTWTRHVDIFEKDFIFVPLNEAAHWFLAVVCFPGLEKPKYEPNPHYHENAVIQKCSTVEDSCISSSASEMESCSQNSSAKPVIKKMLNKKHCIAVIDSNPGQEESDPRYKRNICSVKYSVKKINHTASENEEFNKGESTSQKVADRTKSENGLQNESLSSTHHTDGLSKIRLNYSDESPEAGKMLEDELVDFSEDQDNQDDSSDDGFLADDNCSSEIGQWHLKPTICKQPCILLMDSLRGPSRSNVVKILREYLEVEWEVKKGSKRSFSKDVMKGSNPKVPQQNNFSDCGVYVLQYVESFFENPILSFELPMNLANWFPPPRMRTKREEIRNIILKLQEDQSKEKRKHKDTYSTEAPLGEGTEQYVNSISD

[7] = biological target: T5, Protein skinhead-1 (Caenorhabditis elegans, UniProt P34707); type: functional
T5 sequence (P34707 whole entry): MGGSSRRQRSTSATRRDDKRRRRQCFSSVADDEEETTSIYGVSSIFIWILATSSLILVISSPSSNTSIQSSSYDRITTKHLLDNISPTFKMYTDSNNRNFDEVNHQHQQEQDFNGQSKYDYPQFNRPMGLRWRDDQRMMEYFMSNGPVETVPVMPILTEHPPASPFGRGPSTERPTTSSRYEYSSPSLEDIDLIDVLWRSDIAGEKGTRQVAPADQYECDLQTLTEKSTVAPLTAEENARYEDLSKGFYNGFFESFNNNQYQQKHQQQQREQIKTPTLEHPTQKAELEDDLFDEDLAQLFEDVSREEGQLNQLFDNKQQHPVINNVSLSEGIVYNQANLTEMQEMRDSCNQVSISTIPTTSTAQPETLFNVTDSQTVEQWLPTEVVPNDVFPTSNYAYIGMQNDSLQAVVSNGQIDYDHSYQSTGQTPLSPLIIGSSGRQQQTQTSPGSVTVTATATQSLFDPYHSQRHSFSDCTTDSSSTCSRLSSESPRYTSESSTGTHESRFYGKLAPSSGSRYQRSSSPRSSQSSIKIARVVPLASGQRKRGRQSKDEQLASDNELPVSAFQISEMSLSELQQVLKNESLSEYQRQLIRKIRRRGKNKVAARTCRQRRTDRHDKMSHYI

[8] = system: Streptococcus sp. 'group A'; assay: growth inhibition of control SK(-) GAS strain, dose response, counter-screen for streptokinase expression inhibitor project, luminescence, kanamycin, BacTiterGlo, confirmation (AID 1900); type: functional, organism-based
[9] = biological target: T6, Streptokinase A (Streptococcus pyogenes serotype M1, UniProt P10520); assay: S. pyogenes streptokinase expression inhibitors, potency, dose response, plasminogen activation absorbance, OD405 (AID 1914); type: functional, Streptococcus pyogenes M1 GAS;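 further: secreted streptokinase activity via plasminogen activation per viability signal from cell pellet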
T6 sequence (P10520 whole entry): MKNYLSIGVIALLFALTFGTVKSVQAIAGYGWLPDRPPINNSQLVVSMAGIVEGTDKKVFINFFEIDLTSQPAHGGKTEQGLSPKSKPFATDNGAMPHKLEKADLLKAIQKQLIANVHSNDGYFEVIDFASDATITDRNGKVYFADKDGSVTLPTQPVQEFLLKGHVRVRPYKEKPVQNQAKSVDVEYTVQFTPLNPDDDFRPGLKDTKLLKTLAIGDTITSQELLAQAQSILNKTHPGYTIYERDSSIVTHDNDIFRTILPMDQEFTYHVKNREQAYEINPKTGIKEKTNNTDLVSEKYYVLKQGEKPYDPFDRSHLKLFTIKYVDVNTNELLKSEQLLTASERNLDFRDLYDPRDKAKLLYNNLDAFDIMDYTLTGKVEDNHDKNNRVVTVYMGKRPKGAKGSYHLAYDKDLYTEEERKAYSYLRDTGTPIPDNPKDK

[10] = system: Streptococcus; assay: Group A Streptococcus viability loss, dose response, counter-screen for streptokinase expression inhibitor project, luminescence, BacTiterGlo (AID 1915); type: functional, organism-based;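 further: potency for reduction of bacterial viability or growth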
[11] = biological target: T7, Replicative DNA helicase DnaB (Mycobacterium tuberculosis, UniProt P9WMR3); assay: DnaB intein splicing inhibitors, dose response, biochemical, cell-free fluorescence (AID 449749); type: functional
T7 sequence (P9WMR3 whole entry): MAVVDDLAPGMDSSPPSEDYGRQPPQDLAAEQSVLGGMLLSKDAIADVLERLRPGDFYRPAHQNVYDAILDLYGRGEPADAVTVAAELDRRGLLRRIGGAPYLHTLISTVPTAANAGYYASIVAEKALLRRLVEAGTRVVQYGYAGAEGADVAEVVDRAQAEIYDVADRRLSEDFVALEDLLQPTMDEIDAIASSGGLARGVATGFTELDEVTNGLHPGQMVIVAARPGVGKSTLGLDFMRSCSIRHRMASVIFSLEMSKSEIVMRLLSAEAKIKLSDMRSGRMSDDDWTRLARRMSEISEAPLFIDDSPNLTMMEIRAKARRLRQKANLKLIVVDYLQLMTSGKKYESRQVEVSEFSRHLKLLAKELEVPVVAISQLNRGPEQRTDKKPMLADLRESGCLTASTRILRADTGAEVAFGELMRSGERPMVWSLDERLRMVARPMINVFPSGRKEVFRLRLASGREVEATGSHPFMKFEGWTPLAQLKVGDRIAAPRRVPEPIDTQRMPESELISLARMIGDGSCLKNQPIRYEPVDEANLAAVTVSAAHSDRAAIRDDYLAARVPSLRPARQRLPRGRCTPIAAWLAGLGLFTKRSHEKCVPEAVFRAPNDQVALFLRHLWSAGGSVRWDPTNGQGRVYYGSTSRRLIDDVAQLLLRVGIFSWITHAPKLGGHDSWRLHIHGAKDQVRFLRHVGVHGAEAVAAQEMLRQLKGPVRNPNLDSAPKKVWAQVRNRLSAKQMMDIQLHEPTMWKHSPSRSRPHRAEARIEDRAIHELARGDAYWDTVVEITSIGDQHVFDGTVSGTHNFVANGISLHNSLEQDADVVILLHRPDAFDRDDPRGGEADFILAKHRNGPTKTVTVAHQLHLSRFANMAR

[12] = biological target: T8, Protein RecA (Mycobacterium tuberculosis, UniProt P9WHJ3); assay: Fluorescence Cell-Free Homogeneous Dose Retest to Identify Inhibitors of RecA-Intein Splicing Activity. [Related pubchem assays (depositor defined):AID2097, AID2223, AID489010, AID492950]; type: functional
T8 sequence (P9WHJ3 whole entry): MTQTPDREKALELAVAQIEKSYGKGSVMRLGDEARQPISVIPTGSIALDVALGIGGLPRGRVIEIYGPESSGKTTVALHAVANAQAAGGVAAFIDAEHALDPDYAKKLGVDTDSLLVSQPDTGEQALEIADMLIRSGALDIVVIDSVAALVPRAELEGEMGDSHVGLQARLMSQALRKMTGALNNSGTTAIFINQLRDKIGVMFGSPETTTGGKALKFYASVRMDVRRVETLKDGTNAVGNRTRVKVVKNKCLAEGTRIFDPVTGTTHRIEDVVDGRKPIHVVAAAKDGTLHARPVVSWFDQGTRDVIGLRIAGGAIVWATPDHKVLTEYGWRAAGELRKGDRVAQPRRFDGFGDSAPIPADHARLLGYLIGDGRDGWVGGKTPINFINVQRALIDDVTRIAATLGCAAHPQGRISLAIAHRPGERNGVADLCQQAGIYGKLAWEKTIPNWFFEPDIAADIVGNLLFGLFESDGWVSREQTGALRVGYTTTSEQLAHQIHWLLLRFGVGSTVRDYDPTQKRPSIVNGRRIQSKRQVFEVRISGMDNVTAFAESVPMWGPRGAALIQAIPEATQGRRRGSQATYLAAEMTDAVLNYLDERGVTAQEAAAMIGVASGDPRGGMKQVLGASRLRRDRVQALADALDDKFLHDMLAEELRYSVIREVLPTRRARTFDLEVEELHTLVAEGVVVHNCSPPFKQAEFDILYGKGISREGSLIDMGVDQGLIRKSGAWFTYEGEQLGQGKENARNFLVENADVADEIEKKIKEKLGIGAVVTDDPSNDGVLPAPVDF

CC(C)=CC(=O)Nc1nnc(-c2ccc(F)cc2)s1
EC50 [1]: 18.2 µM (active)
EC50 [2]: 13.8 µM (active)

Clc1ccsc1-c1csc(-c2cccnc2)n1
IC50 [3]: 6.3 µM (active)
IC50 [4]: 19.4 µM (active)
IC50 [5]: 22.6 µM (active)
IC50 [6]: 11.3 µM (active)
IC50 [7]: > 100 µM (inactive)

COC(=O)c1ccc(-c2csc(NC(=O)c3ccc(S(=O)(=O)N4CCc5ccccc5C4)cc3)n2)cc1
EC50 [1]: 10.3 µM (active)
EC50 [2]: 10.2 µM (active)

CC(C)NC(=O)NC(=O)CSc1nnc(COc2ccccc2F)n1C(C)C1CC2CCC1C2 (centres undefined)
EC50 [8]: 5.26 µM (active)
EC50 [9]: 16.8 µM (active)
EC50 [1]: 19 µM (active)
EC50 [10]: > 150 µM (not active)
EC50 [2]: 20.8 µM (active)

COc1cc2c(cc1OC)CN(c1nc(CN3CCOCC3)nc3sc4c(c13)CCCC4)CC2
EC50 [1]: 4.64 µM (active)
EC50 [2]: 6.69 µM (active)

COc1ccc(-c2cc(C(=O)n3cnc4ccccc43)c3ccccc3n2)cc1
AC50 [11]: > 380 µM (inactive)
IC50 [7]: > 100 µM (inactive)
EC50 [12]: 3.72 µM (active)
